Laboratory results as given in patent US20240180989A1, “LIGUSTRUM LUCIDUM EXTRACT USEFUL FOR THE TREATMENT AND/OR CARE OF THE SKIN” (Lubrizol Advanced Materials, Inc., priority 2021, published 2024).

Tests used:
[1] = tested on: arginase; assay: Arginase activity reduction in human epidermal keratinocytes (colorimetric Arginase Activity kit); format: cell-based; details: 1 mM, donor
Procedure: Human epidermal keratinocytes (HEK) of donor (Tebu Bio), donor (Promocell) and donor (Promocell) are seeded in 6-well plates at a density of 3×10^5 cells/well in keratinocyte growth medium supplemented with Mix C39016-CaCl2 solution (Promocell). […] The donor's cells treated with S-(2-Boronoethyl)-L-cysteine hydrochloride (BEC, Sigma) 1 mM are used as positive control of arginase inhibition, and the donor's, donor's and 26-year-old donor's cells treated with medium alone are used as basal control of arginase activity at different ages. Treatment is continued for 24 hours. After 24 hours, cells are lysed and are analyzed by a colorimetric Arginase Activity kit (Abcam) according to manufacturer's instructions. […] Absorbance is measured by using a microplate reader (Clariostar, BMG) set to 570 nm in a kinetic mode for 30 minutes. […] Arginase activity is calculated in the exponential phase of the kinetic for each sample with the following equation: AOD═(OD2−ODBG2)−(OD1−ODBG1); where: OD1 and OD2 is the sample reading at time T1 and T2 respectively, ODBG1 and ODBG2 is the sample background reading at time T1 and T2 respectively.
Total protein amount of each sample is determined using a Pierce BCA protein assay kit (Thermo fisher) according to the manufacturer's protocol. […] Afterwards, color change is measured with an absorbance microplate reader (Clariostar, BMG) at 562 nm. […]

[2] = tested on: peroxynitrite production in Human epidermal keratinocytes (HEK); assay: Quantification of peroxynitrite production in human epidermal keratinocytes; format: cell-based; details: 1 hour, per cell
Procedure: Human epidermal keratinocytes (HEK) are seeded in 96-well plates at a density of 3×10^4 cells/well in keratinocyte growth medium supplemented with Mix C39016-CaCl2 solution (Promocell). After 24 hours incubation, medium is replaced with fresh culture medium with scalar dilutions of the subcritical water extract at 160° C. of Example 2. Treatment is continued for 24 hours and cells treated with medium alone are used as basal control. After 24 hours incubation, peroxynitrite production is measured by a fluorescence approach with Peroxynitrite assay kit (Abcam) following the manufacturer's instructions. In brief, cells are treated with 10 μl/well sensor green working solution during 1 hour in the medium. Cells treated with SIN-1 (Sigma) 11 mM or 5.76 mM during 1 hour in combination with sensor green solution are used as a positive control of peroxynitrite production. SIN-1 (Sigma) is a nitric oxide donor. After 1-hour incubation, fluorescence is measured with an […] microplate reader (Clariostar, BMG) at excitation 490 nm and emission 530 nm. […] Cell nuclei number is determined with a confocal microscopy Operetta (PerkinElmer). Peroxynitrite fluorescence intensity is normalized to cell number for each condition.
The results in Table 8 are expressed as a percentage of peroxynitrite per cell normalized by basal condition.

Compound	Arginase activity MEAN subtracting basal condition and normalizing respect basal condition of cells [1]	Arginase activity MEAN respect basal condition of cells ([1]; 24 h)	Peroxynitrite production MEAN respect basal condition ([2]; 5.76 mM)	Peroxynitrite production MEAN respect basal condition ([2]; 11 mM)
Cl.N[C@@H](CSCCB(O)O)C(=O)O [BEC, S-(2-Boronoethyl)-L-cysteine hydrochloride]	−10.58%	70.10%	–	–
[NH-]c1c[n+](N2CCOCC2)no1 [SIN-1]	–	–	2379.00%	1654.00%
